Test results as given in ChEMBL document CHEMBL1201862, “PubChem BioAssay data set” (2004).
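Cells were grown in 96-well plates and exposed to each compound for 48 hours at five concentrations; endpoints were interpolated linearly between bracketing concentrations, or set to the highest concentration if not reached. GI50: concentration for 50% inhibition of growth.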 The source made the active and inactive calls. Rule as the data show it: active = GI50 up to about 1.1 µM and inactive = higher.

How the values were obtained:
Experiment in all cases: growth of human tumour cells (NCI), 48 h
K562 = tested on: K562
NCI-H226 = tested on: NCI-H226
SK-MEL-2 = tested on: SK-MEL-2
EKVX = tested on: EKVX
NCI-H23 = tested on: NCI-H23
PC-3 = tested on: PC-3
HCC 2998 = tested on: HCC 2998
HT-29 = tested on: HT-29
NCI/ADR-RES = tested on: NCI/ADR-RES
MDA-N = tested on: MDA-N
Hs-578T = tested on: Hs-578T
MDA-MB-231 = tested on: MDA-MB-231
OVCAR-3 = tested on: OVCAR-3
OVCAR-5 = tested on: OVCAR-5
CCRF-CEM = tested on: CCRF-CEM
RXF 393 = tested on: RXF 393
UACC-257 = tested on: UACC-257
MDA-MB-435 = tested on: MDA-MB-435
A549 = tested on: A549
MOLT-4 = tested on: MOLT-4

Compound	GI50 (K562)	GI50 (NCI-H226)	GI50 (SK-MEL-2)	GI50 (EKVX)	GI50 (NCI-H23)	GI50 (PC-3)	GI50 (HCC 2998)	GI50 (HT-29)	GI50 (NCI/ADR-RES)	GI50 (MDA-N)	GI50 (Hs-578T)	GI50 (MDA-MB-231)	GI50 (OVCAR-3)	GI50 (OVCAR-5)	GI50 (CCRF-CEM)	GI50 (RXF 393)	GI50 (UACC-257)	GI50 (MDA-MB-435)	GI50 (A549)	GI50 (MOLT-4)
CC1CC(C)C2=NOS3=C2C1=NO3 (stereo not given)	53.8 µM (inactive)	> 100 µM (inactive)	> 100 µM (inactive)	40 µM (inactive)	> 100 µM (inactive)	> 100 µM (inactive)	> 100 µM (inactive)	> 100 µM (inactive)	> 100 µM (inactive)	> 100 µM (inactive)	> 100 µM (inactive)	> 100 µM (inactive)	> 100 µM (inactive)	> 100 µM (inactive)	> 100 µM (inactive)	> 100 µM (inactive)	> 100 µM (inactive)	> 100 µM (inactive)	> 100 µM (inactive)	89.9 µM (inactive)
COc1ccc(NC(=O)CC(=O)NNC(Sc2ccccc2)c2cc(/N=N/c3ccc(Br)cc3)ccc2O)cc1 (stereo not given)	> 10 µM (inactive)	2.74 µM (inactive)	> 10 µM (inactive)	> 10 µM (inactive)	> 10 µM (inactive)	> 10 µM (inactive)	> 10 µM (inactive)	> 10 µM (inactive)	> 10 µM (inactive)	> 10 µM (inactive)	> 10 µM (inactive)	> 10 µM (inactive)	2.21 µM (inactive)	> 10 µM (inactive)	3.56 µM (inactive)	> 10 µM (inactive)	> 10 µM (inactive)	> 10 µM (inactive)	> 10 µM (inactive)	3.86 µM (inactive)
O=C1C(=C(C(=O)c2ccccc2)C(=O)c2ccccc2)OC(c2ccccc2)=C1C(=O)c1ccccc1	6.03 µM (inactive)	3.74 µM (inactive)	10.8 µM (inactive)	8.28 µM (inactive)	6.1 µM (inactive)	13.2 µM (inactive)	9.77 µM (inactive)	11.7 µM (inactive)	5.2 µM (inactive)	6.47 µM (inactive)	11.5 µM (inactive)	6.61 µM (inactive)	5.86 µM (inactive)	16.9 µM (inactive)	1.78 µM (inactive)	0.122 µM (active)	17.1 µM (inactive)	8.2 µM (inactive)	9.04 µM (inactive)	1.98 µM (inactive)
Cc1c(CN2CCN(C)CC2)c(CN2CCN(C)CC2)c(C)n1-c1ccc(Cl)cc1	23.4 µM (inactive)	33.6 µM (inactive)	21.3 µM (inactive)	72.4 µM (inactive)	54.2 µM (inactive)	29.4 µM (inactive)	39.7 µM (inactive)	18.2 µM (inactive)	> 100 µM (inactive)	21 µM (inactive)	24 µM (inactive)	68.5 µM (inactive)	94.8 µM (inactive)	53.7 µM (inactive)	19.3 µM (inactive)	17.1 µM (inactive)	14.2 µM (inactive)	25.1 µM (inactive)	30.4 µM (inactive)	30.3 µM (inactive)
CC(=O)O[C@H]1CCC2[C@@H]3CCC4NC(=O)C(C#N)C[C@]4(C)C3CC[C@@]21C (stereo not given in full)	> 10 µM (inactive)	> 10 µM (inactive)	> 10 µM (inactive)	8.17 µM (inactive)	> 10 µM (inactive)	> 10 µM (inactive)	> 10 µM (inactive)	> 10 µM (inactive)	> 10 µM (inactive)	> 10 µM (inactive)	3.96 µM (inactive)	> 10 µM (inactive)	> 10 µM (inactive)	> 10 µM (inactive)	> 10 µM (inactive)	> 10 µM (inactive)	> 10 µM (inactive)	> 10 µM (inactive)	> 10 µM (inactive)	> 10 µM (inactive)
CCOC(=O)c1cccc(NC(=O)CCl)c1	3.08 µM (inactive)	6.55 µM (inactive)	2.64 µM (inactive)	3.18 µM (inactive)	3.22 µM (inactive)	6.1 µM (inactive)	2.19 µM (inactive)	3.81 µM (inactive)	3.61 µM (inactive)	3.92 µM (inactive)	2.93 µM (inactive)	4.57 µM (inactive)	1.86 µM (inactive)	7 µM (inactive)	3.21 µM (inactive)	3 µM (inactive)	5.09 µM (inactive)	2.38 µM (inactive)	10.4 µM (inactive)	5.2 µM (inactive)
CCC(=O)O[C@H]1CC[C@H]2[C@@H]3CCC4=C/C(=N/NC(=O)c5cccc6c(=O)c7ccccc7[nH]c56)CC[C@]4(C)[C@H]3CC[C@]12C	> 25 µM (inactive)	> 25 µM (inactive)	> 25 µM (inactive)	> 25 µM (inactive)	> 25 µM (inactive)	> 25 µM (inactive)	> 25 µM (inactive)	> 25 µM (inactive)	> 25 µM (inactive)	> 25 µM (inactive)	> 25 µM (inactive)	> 25 µM (inactive)	> 25 µM (inactive)	> 25 µM (inactive)	> 25 µM (inactive)	> 25 µM (inactive)	> 25 µM (inactive)	> 25 µM (inactive)	> 25 µM (inactive)	> 25 µM (inactive)
CCc1c2c(cc3c1CC1(C3)Cc3cc4c(c(C(=O)OC)c3C1)CCCC4)CCCC2 (stereo not given)	> 100 µM (inactive)	> 100 µM (inactive)	> 100 µM (inactive)	28.4 µM (inactive)	> 100 µM (inactive)	> 100 µM (inactive)	> 100 µM (inactive)	> 100 µM (inactive)	> 100 µM (inactive)	> 100 µM (inactive)	19.2 µM (inactive)	> 100 µM (inactive)	> 100 µM (inactive)	> 100 µM (inactive)	51.3 µM (inactive)	59.4 µM (inactive)	> 100 µM (inactive)	> 100 µM (inactive)	29.7 µM (inactive)	34.5 µM (inactive)
Cc1cn(CCOCCOC(=O)NC(CCCNC(=N)N)C(=O)O)c(=O)[nH]c1=O (stereo not given)	> 100 µM (inactive)	> 100 µM (inactive)	> 100 µM (inactive)	> 100 µM (inactive)	> 100 µM (inactive)	> 100 µM (inactive)	> 100 µM (inactive)	> 100 µM (inactive)	26.8 µM (inactive)	> 100 µM (inactive)	> 100 µM (inactive)	> 100 µM (inactive)	> 100 µM (inactive)	> 100 µM (inactive)	> 100 µM (inactive)	> 100 µM (inactive)	> 100 µM (inactive)	> 100 µM (inactive)	> 100 µM (inactive)	> 100 µM (inactive)
Cc1cc2c(cc1C)C(=O)C1(C2)Cc2cc3c(cc2C1=O)CCC3 (stereo not given)	> 100 µM (inactive)	> 100 µM (inactive)	> 100 µM (inactive)	> 100 µM (inactive)	> 100 µM (inactive)	> 100 µM (inactive)	> 100 µM (inactive)	> 100 µM (inactive)	> 100 µM (inactive)	> 100 µM (inactive)	> 100 µM (inactive)	> 10 µM (inactive)	> 100 µM (inactive)	> 100 µM (inactive)	> 100 µM (inactive)	> 100 µM (inactive)	> 100 µM (inactive)	> 100 µM (inactive)	> 100 µM (inactive)	> 100 µM (inactive)
COc1cccc(/C=N/[N+](C)(C)C)c1O	> 10 µM (inactive)	> 10 µM (inactive)	> 10 µM (inactive)	> 10 µM (inactive)	2.22 µM (inactive)	> 10 µM (inactive)	> 10 µM (inactive)	> 10 µM (inactive)	> 10 µM (inactive)	> 10 µM (inactive)	> 10 µM (inactive)	> 10 µM (inactive)	> 10 µM (inactive)	> 10 µM (inactive)	> 10 µM (inactive)	> 10 µM (inactive)	> 10 µM (inactive)	> 10 µM (inactive)	> 10 µM (inactive)	> 10 µM (inactive)
N=C(N)CCNC(=O)C1CCC(N)=N1 (stereo not given)	13.2 µM (inactive)	18.1 µM (inactive)	27.2 µM (inactive)	9.12 µM (inactive)	16.1 µM (inactive)	6 µM (inactive)	4.95 µM (inactive)	5.2 µM (inactive)	26.2 µM (inactive)	21.4 µM (inactive)	8.36 µM (inactive)	14.7 µM (inactive)	9.82 µM (inactive)	19.1 µM (inactive)	12.5 µM (inactive)	35.1 µM (inactive)	13.7 µM (inactive)	31.5 µM (inactive)	6.49 µM (inactive)	12.2 µM (inactive)
COc1cc([C@H]2c3cc4c(cc3O[C@@]3(O)COC(=O)[C@@H]23)OCO4)cc(OC)c1OC	> 100 µM (inactive)	> 100 µM (inactive)	> 100 µM (inactive)	> 100 µM (inactive)	> 10 µM (inactive)	> 100 µM (inactive)	> 100 µM (inactive)	> 100 µM (inactive)	> 100 µM (inactive)	> 100 µM (inactive)	> 100 µM (inactive)	> 100 µM (inactive)	> 100 µM (inactive)	> 100 µM (inactive)	> 100 µM (inactive)	> 10 µM (inactive)	> 100 µM (inactive)	> 100 µM (inactive)	> 100 µM (inactive)	> 100 µM (inactive)
CC(=O)Oc1ccc(/C=C/C(=O)OCCOC(=O)/C=C/c2ccc(OC(C)=O)c(OC(C)=O)c2)cc1OC(C)=O	4.89 µM (inactive)	14.9 µM (inactive)	17.5 µM (inactive)	14.8 µM (inactive)	4.26 µM (inactive)	12.1 µM (inactive)	14.5 µM (inactive)	18.6 µM (inactive)	4.06 µM (inactive)	7.14 µM (inactive)	16.8 µM (inactive)	14.5 µM (inactive)	5.36 µM (inactive)	14.6 µM (inactive)	1.25 µM (inactive)	7.76 µM (inactive)	10.5 µM (inactive)	6.55 µM (inactive)	16.1 µM (inactive)	5.61 µM (inactive)
